Results taken from paper PMC4503722, “Novel Phenotypic Outcomes Identified for a Public Collection of Approved Drugs from a Publicly Accessible Panel of Assays” (PLoS ONE, 2015).
Read-outs that look alike come from different tables or passages of the source. *1 amine or outer side, *2 acyl side, *3 side chain or, on linkers, in order; H or OH if unused. Where a SMILES comes first, the peptide text is derived from it. Bridges are numbered along the chain shown (N, C = ends). Roman numbers before positions name the chains, in order. [ ]: non-standard residue; d: D form. Actinocin(9to1) = Cc1c2oc3c(C)ccc(C(=O)[*:1])c3nc-2c(C(=O)[*:2])c(N)c1=O; NMeV = CN[C@H](C(=O)O)C(C)C; Sar = CNCC(=O)O

Key:
HeLa cells = experiment: cells; format: cell-based
[1] = tested on: alkaline phosphatase (ALP) activity in C2C12 cells; format: cell-based; conditions: assay number 6; concentration response
[2] = tested on: nuclear β-catenin in C2C12 cells; experiment: cells; format: cell-based; conditions: for WntCondMedia_bCatenin C2C12 IC50/EC50: assay number 5, concentration response
hKDR = target: T1, hKDR (Homo sapiens, UniProt P35968); experiment: Cerep LANCE kinase assay hKDR (S1 assay 32); format: biochemical
T1 construct: purchased Cerep (LANCE kinase assay platform, contract assay)

hGSK3b = target: T2, hGSK3b (Homo sapiens, UniProt P49841); experiment: Cerep LANCE kinase assay hGSK3b (S1 assay 34); format: biochemical
T2 construct: purchased Cerep (LANCE kinase assay platform, contract assay)

[3] = tested on: endothelial tube formation in co-cultures of ECFCs and ADSCs treated with VEGF; experiment: cells; format: cell-based, human
NCI-H716 cells = experiment: cells; format: cell-based, Human
hJAK2 = target: T3, hJAK2 (Homo sapiens, UniProt O60674); experiment: Cerep LANCE kinase assay hJAK2 (S1 assay 33); format: biochemical
T3 construct: purchased Cerep (LANCE kinase assay platform, contract assay)

STC-1 cell line = format: cell-based, mouse
hp70S6K1 (RPS6KB1) = target: T4, hp70S6K1 (RPS6KB1) (Homo sapiens, UniProt P23443); experiment: Cerep LANCE kinase assay hp70S6K1 (S1 assay 31); format: biochemical
T4 construct: purchased Cerep (LANCE kinase assay platform, contract assay)

[4] = tested on: ECFC/ADSC co-culture cell nuclei number
INS-1E cells = experiment: cells; format: cell-based, rat;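 as to 5mMGluc INS1E SecretionMod IC50/EC50: secreted insulin quantified by homogeneous immunoassay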
hFLT3 = target: T5, hFLT3 (Homo sapiens, UniProt P36888); experiment: Cerep LANCE kinase assay hFLT3 (S1 assay 35); format: biochemical
T5 construct: purchased Cerep (LANCE kinase assay platform, contract assay)

HT-29 = experiment: cells; format: cell-based
Colo320 = experiment: cells; format: cell-based
RKO = experiment: cells; format: cell-based
SW480 = experiment: cells; format: cell-based
DLD-1 = experiment: cells; format: cell-based
[5] = tested on: HCT116 cells treated with a GSK3β inhibitor; experiment: cells; format: cell-based
SNU-C1 = experiment: cells; format: cell-based
HCT116 = experiment: cells; format: cell-based

T2 sequence (P49841 whole entry): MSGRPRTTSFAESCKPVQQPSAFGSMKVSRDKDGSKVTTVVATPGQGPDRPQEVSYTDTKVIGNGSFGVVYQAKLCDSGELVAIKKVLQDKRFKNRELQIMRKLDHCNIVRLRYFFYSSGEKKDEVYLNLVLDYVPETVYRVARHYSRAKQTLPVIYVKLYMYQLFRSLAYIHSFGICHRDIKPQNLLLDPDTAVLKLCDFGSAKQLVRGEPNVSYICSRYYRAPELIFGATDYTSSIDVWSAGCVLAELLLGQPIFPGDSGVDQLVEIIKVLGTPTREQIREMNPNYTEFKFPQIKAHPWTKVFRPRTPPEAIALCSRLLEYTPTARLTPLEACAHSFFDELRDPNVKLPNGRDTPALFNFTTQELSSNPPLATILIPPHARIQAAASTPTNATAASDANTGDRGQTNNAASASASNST
T3 sequence (O60674 whole entry): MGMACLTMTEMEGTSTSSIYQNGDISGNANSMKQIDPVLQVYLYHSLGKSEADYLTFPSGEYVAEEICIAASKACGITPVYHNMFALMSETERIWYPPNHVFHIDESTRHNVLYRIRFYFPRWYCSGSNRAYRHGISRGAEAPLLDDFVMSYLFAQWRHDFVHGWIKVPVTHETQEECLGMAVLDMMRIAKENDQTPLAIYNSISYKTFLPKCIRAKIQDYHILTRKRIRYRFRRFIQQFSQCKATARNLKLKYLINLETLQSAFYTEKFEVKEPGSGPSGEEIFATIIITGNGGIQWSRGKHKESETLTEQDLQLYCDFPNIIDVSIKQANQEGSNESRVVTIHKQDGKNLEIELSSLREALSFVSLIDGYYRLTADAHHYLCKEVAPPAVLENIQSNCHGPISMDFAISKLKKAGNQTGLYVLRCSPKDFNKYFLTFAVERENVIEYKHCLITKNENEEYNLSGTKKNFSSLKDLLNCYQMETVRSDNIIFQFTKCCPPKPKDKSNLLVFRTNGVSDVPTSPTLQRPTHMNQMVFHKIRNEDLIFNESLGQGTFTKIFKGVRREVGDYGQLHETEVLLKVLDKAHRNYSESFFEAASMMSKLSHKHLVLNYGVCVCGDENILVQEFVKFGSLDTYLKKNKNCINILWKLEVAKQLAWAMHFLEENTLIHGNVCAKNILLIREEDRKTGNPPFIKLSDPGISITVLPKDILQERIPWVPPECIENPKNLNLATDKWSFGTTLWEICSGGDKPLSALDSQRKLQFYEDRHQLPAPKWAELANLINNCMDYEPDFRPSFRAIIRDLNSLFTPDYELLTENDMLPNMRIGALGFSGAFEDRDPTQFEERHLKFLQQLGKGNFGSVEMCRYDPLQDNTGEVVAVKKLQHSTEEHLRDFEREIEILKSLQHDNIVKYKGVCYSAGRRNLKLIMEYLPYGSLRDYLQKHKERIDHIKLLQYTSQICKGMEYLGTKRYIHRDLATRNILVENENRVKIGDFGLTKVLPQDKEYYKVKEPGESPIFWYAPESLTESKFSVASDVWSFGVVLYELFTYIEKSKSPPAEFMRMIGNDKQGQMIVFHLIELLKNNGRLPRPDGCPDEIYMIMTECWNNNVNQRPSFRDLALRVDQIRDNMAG
T5 sequence (P36888 27-993): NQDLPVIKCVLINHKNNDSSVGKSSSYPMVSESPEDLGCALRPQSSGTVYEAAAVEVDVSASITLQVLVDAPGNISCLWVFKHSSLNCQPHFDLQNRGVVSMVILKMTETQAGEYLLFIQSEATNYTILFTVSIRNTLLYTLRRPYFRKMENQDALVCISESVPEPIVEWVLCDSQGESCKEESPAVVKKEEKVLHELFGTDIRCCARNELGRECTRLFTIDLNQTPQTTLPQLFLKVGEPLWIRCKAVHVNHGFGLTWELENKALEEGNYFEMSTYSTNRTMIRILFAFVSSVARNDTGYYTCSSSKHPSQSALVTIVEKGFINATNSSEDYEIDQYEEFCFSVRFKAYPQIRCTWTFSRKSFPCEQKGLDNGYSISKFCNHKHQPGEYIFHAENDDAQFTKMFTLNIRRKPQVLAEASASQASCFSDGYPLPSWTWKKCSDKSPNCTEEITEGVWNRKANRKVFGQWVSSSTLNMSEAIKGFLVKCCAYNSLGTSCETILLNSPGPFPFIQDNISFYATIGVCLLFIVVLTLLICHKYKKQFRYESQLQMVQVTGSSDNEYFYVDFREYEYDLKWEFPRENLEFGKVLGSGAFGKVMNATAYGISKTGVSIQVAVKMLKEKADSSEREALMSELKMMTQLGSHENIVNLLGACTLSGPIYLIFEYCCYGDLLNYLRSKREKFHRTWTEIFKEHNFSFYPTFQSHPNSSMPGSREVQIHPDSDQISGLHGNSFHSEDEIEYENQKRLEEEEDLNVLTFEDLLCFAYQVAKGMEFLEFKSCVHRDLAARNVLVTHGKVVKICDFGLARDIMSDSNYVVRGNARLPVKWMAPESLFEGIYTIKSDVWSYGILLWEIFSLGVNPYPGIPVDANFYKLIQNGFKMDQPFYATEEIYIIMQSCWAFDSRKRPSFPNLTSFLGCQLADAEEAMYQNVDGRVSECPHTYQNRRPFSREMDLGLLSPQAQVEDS
T4 sequence (P23443 whole entry): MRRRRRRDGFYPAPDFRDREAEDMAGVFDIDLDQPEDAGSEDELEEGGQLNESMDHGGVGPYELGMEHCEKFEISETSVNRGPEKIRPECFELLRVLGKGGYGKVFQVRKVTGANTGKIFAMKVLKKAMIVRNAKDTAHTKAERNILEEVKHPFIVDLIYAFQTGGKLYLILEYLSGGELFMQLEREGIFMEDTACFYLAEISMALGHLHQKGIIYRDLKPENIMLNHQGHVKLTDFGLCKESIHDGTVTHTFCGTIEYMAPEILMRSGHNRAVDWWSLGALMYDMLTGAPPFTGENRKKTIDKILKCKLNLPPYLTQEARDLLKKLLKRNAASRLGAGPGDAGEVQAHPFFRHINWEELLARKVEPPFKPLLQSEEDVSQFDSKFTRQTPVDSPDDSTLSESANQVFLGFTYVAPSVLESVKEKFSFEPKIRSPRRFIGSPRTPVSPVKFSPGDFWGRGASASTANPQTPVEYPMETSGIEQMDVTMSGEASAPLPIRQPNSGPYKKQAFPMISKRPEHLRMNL
T1 sequence (P35968 20-1356): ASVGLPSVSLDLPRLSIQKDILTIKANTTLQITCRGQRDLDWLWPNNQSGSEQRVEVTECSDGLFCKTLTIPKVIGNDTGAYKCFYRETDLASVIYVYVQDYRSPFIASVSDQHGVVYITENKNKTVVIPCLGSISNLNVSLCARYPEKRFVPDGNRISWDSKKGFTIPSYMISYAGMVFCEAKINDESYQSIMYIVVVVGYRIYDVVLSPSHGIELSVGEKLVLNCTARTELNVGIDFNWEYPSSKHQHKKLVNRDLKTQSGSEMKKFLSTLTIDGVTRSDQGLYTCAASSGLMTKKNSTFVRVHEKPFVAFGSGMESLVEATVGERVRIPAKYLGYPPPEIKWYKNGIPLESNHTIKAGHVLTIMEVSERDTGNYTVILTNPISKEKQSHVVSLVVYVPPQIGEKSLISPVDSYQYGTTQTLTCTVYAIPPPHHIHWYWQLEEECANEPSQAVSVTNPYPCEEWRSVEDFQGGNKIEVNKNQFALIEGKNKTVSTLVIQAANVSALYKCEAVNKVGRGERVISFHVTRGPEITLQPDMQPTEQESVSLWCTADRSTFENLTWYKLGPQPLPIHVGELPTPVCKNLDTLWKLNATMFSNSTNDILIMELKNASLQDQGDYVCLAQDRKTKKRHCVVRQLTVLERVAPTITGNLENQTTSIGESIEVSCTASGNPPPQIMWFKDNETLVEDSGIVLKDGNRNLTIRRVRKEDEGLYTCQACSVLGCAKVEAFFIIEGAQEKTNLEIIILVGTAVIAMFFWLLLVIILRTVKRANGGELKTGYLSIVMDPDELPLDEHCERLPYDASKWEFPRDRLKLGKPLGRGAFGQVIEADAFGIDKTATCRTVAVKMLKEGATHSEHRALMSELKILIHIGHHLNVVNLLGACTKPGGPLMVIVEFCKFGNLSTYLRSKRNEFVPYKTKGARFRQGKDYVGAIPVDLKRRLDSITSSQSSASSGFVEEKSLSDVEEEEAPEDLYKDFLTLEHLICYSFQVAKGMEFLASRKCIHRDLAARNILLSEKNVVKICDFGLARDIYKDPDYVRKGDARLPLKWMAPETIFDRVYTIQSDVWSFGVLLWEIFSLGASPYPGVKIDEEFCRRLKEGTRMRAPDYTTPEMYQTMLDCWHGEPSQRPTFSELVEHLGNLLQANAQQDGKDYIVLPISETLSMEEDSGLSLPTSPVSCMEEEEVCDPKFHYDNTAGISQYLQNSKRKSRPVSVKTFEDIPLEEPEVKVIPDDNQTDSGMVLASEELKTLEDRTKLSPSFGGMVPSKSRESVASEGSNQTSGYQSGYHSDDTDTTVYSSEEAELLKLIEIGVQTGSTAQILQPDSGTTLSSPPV

With C=CC(=O)Nc1cc2c(Nc3ccc(F)c(Cl)c3)ncnc2cc1OCCCN1CCOCC1 [NCGC00182713-01] the “Hela CellCycMod PI 2N IC50/EC50” value (HeLa cells; assay number 14, 2N) was 8.8729 µM, the “Hela CellCycMod PI S Phase IC50/EC50” value (HeLa cells; assay number 15, S phase) was > 10 µM and the “Hela CellCycMod PI 4N IC50/EC50” value (HeLa cells; assay number 16, 4N) was > 10 µM. The “Hela CellCycMod PI MI IC50/EC50” value (HeLa cells; assay number 17, MI) was 4.2934 µM, the “Hela CellCycMod PI Cell Number IC50/EC50” value (HeLa cells; assay number 18, cell number) was 2.0936 µM and the “WntCondMedia_Alk Phos C2C12 IC50/EC50” value [1] was 9.4628 µM. For the same molecule, the “WntCondMedia_bCatenin C2C12 IC50/EC50” value [2] was 1.0017 µM.
In the case of CCCCCCCCCCCCCCCCCCNC(=O)OC1CCN(C(=O)OC[C@H](COC(=O)N(Cc2cccc[n+]2CC)C(=O)c2ccccc2OC)OC)CC1.[Cl-] [NCGC00183020-01], the “hKDR LANCE IC50/EC50” value (hKDR; assay number 32) is reported as > 20 µM, the “hGSK3b LANCE IC50/EC50” value (hGSK3b; assay number 34) is reported as > 20 µM and the “VEGF_ADSC\ECFC Angio CD31 TubeArea IC50/EC50” value [3] is reported as 1.4957 µM. The “hNCI-H716 GLP1 Secretion IC50/EC50” value (NCI-H716 cells; assay number 12) was 9.522 µM, the “Hela CellCycMod PI 2N IC50/EC50” value (HeLa cells; assay number 14, 2N) was > 10 µM and the “Hela CellCycMod PI 4N IC50/EC50” value (HeLa cells; assay number 16, 4N) was > 10 µM. The “Hela CellCycMod PI MI IC50/EC50” value (HeLa cells; assay number 17, MI) was > 10 µM, the “Hela CellCycMod PI Cell Number IC50/EC50” value (HeLa cells; assay number 18, cell number) was 6.1389 µM and the “hJAK2 LANCE IC50/EC50” value (hJAK2; assay number 33) was > 20 µM. For the same molecule, the “mSTC-1 GLP1 Secretion IC50/EC50” value (STC-1 cell line; assay number 13) was 13.8183 µM, the “hp70S6K1 LANCE IC50/EC50” value (hp70S6K1 (RPS6KB1); assay number 31) was > 20 µM and the “VEGF_ADSC\ECFC Angio Hoechst NucArea IC50/EC50” value [4] was > 10 µM. The “5mMGluc_INS1E SecretionMod IC50/EC50” value (INS-1E cells; assay number 8, 5 mM glucose) was 21.7337 µM and the “hFLT3 LANCE IC50/EC50” value (hFLT3; assay number 35) was > 20 µM.
CCCCCCCCCCCCCC[N+](C)(C)Cc1ccccc1 [NCGC00187943-02] was tested, and the “VEGF_ADSC\ECFC Angio CD31 TubeArea IC50/EC50” value [3] was 3.0091 µM, the “WntCondMedia_Alk Phos C2C12 IC50/EC50” value [1] was > 20 µM and the “VEGF_ADSC\ECFC Angio Hoechst NucArea IC50/EC50” value [4] was 8.357 µM. The “WntCondMedia_bCatenin C2C12 IC50/EC50” value [2] was > 20 µM.
For O.O.O.O.O=C1OC2(c3cc(Br)c([O-])cc3Oc3c2cc(Br)c([O-])[c]3[Hg])c2ccccc21.[Na+].[Na+] (stereo not shown) [NCGC00262588-02], the “WntCondMedia_Alk Phos C2C12 IC50/EC50” value [1] was > 20 µM and the “WntCondMedia_bCatenin C2C12 IC50/EC50” value [2] was 16.8578 µM.
For Cc1c2oc3c(C)ccc(C(=O)N[C@@H]4C(=O)N[C@H](C(C)C)C(=O)N5CCC[C@H]5C(=O)N(C)CC(=O)N(C)[C@@H](C(C)C)C(=O)O[C@@H]4C)c3nc-2c(C(=O)N[C@@H]2C(=O)N[C@H](C(C)C)C(=O)N3CCC[C@H]3C(=O)N(C)CC(=O)N(C)[C@@H](C(C)C)C(=O)O[C@@H]2C)c(N)c1=O [NCGC00271789-02] (I: T[dV]P[Sar][NMeV] / II: T[dV]P[Sar][NMeV]; ester I:1-I:C, II:1-II:C; linker I:N-II:N via Actinocin(9to1)), the “VEGF_ADSC\ECFC Angio CD31 TubeArea IC50/EC50” value [3] was 0.001 µM, the “WntCondMedia_Alk Phos C2C12 IC50/EC50” value [1] was 0.0015 µM and the “VEGF_ADSC\ECFC Angio Hoechst NucArea IC50/EC50” value [4] was 0.04031 µM. The “WntCondMedia_bCatenin C2C12 IC50/EC50” value [2] was 0.037 µM.
In the case of CN1CCCC(CC2c3ccccc3Sc3ccccc32)C1.Cl (stereo not shown) [NCGC00273481-01], the “VEGF_ADSC\ECFC Angio CD31 TubeArea IC50/EC50” value [3] is reported as 8.6842 µM, the “Basal_Viability ATP HT-29 IC50/EC50” value (HT-29) is reported as 6.4328 µM and the “hNCI-H716 GLP1 Secretion IC50/EC50” value (NCI-H716 cells) is reported as > 40 µM. For the same molecule, the “Hela CellCycMod PI 2N IC50/EC50” value (HeLa cells) was > 10 µM, the “Hela CellCycMod PI 4N IC50/EC50” value (HeLa cells) was > 10 µM and the “Hela CellCycMod PI Cell Number IC50/EC50” value (HeLa cells) was > 10 µM. The “Hela CellCycMod PI MI IC50/EC50” value (HeLa cells) was > 10 µM, the “Basal_Viability ATP Colo 320 IC50/EC50” value (Colo320) was > 20 µM and the “mSTC-1 GLP1 Secretion IC50/EC50” value (STC-1 cell line) was > 40 µM. For the same molecule, the “Basal_Viability ATP RKO IC50/EC50” value (RKO) was 3.4891 µM, the “Basal_Viability ATP SW480 IC50/EC50” value (SW480) was 4.7038 µM and the “Basal_Viability ATP DLD-1 IC50/EC50” value (DLD-1) was > 20 µM. The “GSK3b inh pretreated_Viability ATP HCT116 IC50/EC50” value [5] was 8.6816 µM, the “VEGF_ADSC\ECFC Angio Hoechst NucArea IC50/EC50” value [4] was > 10 µM and the “Basal_Viability ATP SNU-C1 IC50/EC50” value (SNU-C1) was 15.0863 µM. The “5mMGluc_INS1E SecretionMod IC50/EC50” value (INS-1E cells) was > 11.11 µM and the “Basal_Viability ATP HCT116 IC50/EC50” value (HCT116) was > 20 µM.
Cc1ccc([N+](=O)[O-])[c]2c1[O][Hg]2 [nitromersol, reference compound] showed an IC50 (hKDR; read-out: KDR) of 16.8 µM, an IC50 (hGSK3b; read-out: GSK3b) of 8.37 µM and an IC50 ([3]; IC50 / EC50, endothelial tube area, ADSC/ECFC co-culture, read-out: Anti-Angiogenesis) of 0.668 µM. The IC50 (HT-29; basal, read-out: Basal_Viability ATP HT-29) was 1.44 µM, the “activity in NCI-H716 GLP-1 secretion assay (in words)” value (NCI-H716 cells) was “potent actives” and the EC50 (NCI-H716 cells; IC50 / EC50, NCI-H716, read-out: GLP 1 Secretion) was 0.0972 µM. The EC50 (HeLa cells; IC50 / EC50, HeLa, read-out: CellCycle G2/M) was > 10 µM, the IC50 (hJAK2; read-out: JAK2) was > 20 µM and the IC50 (Colo320; basal, read-out: Basal_Viability ATP Colo 320) was 0.935 µM. The “activity in STC-1 GLP-1 secretion assay (in words)” value (STC-1 cell line) was “potent actives”, the IC50 (SW480; basal, read-out: Basal_Viability ATP SW480) was 1.13 µM and the IC50 (DLD-1; basal, read-out: Basal_Viability ATP DLD-1) was 1.62 µM. The IC50 ([5]; GSK3b inhibitor pretreated, read-out: GSK3b inh pretreated_Viability ATP HCT116) was > 20 µM, the IC50 (hp70S6K1 (RPS6KB1); read-out: p70S6K1) was > 20 µM and the IC50 (SNU-C1; basal, read-out: Basal_Viability ATP SNU-C1) was 0.202 µM. For the same molecule, the EC50 (INS-1E cells; IC50 / EC50, INS-1E, read-out: Insulin Secretion) was > 20 µM, the EC50 ([2]; IC50 / EC50, C2C12 beta-catenin translocation, read-out: Wnt Pathway) was 0.155 µM and the IC50 (hFLT3; read-out: FLT3) was 10.4 µM. It also gave an IC50 (HCT116; basal, read-out: Basal_Viability ATP HCT116) of 2.83 µM.
